Data set [1] addresses T1, Transcriptional activator protein LasR (Pseudomonas aeruginosa (strain ATCC 15692 / PAO1 / 1C / PRS 101 / LMG12228)) (UniProt P25084).
T1 sequence (whole entry): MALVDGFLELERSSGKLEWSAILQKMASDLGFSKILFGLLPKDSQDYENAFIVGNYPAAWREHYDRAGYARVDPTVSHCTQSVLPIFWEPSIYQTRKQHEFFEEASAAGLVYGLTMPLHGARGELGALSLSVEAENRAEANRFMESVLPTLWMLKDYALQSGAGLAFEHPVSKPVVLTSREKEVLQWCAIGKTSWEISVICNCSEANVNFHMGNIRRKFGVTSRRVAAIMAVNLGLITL
The data set is described as follows: Inhibition of LasR in Pseudomonas aeruginosa PA14 assessed as reduction in biofilm formation at 1 to 1000 uM incubated at 37 degC for 24 hrs by crystal violet staining based static biofilm formation assay.

Data set [2] deals with T1, Transcriptional activator protein LasR (Pseudomonas aeruginosa (strain ATCC 15692 / PAO1 / 1C / PRS 101 / LMG12228)). The experiment in a line: Inhibition of LasR in Pseudomonas aeruginosa PA14 assessed as reduction in rhlB gene expression at 10 uM by RT-qPCR method.
Data set [3] has the same target. The data set is described as follows: Inhibition of LasR in Pseudomonas aeruginosa PA14 assessed as reduction in rhlI gene expression at 10 uM by RT-qPCR method.
Data set [4] has the same target. The experiment in a line: Inhibition of LasR in Pseudomonas aeruginosa PA14 assessed as reduction in phzC1 gene expression at 10 uM by RT-qPCR method.
Data set [5] shares this target. The data set is described as follows: Inhibition of LasR in Pseudomonas aeruginosa PA14 assessed as reduction in phnB gene expression at 10 uM by RT-qPCR method. A general note: Quantitative PCR measures a nucleic acid by following its amplification.
Data set [6] shares this target. The data set is described as follows: Inhibition of LasR in Pseudomonas aeruginosa PA14 assessed as reduction in mvfR gene expression at 10 uM by RT-qPCR method.
Data set [7] shares this target. The data set is described as follows: Inhibition of LasR in Pseudomonas aeruginosa PA14 assessed as reduction in biofilm formation incubated at 37 degC for 24 hrs by crystal violet staining based static biofilm formation assay.
Data set [8] has the same target. The data set is described as follows: Inhibition of LasR in Pseudomonas aeruginosa PA14 assessed as reduction in lasB gene expression at 10 uM by RT-qPCR method.
For data set [9] the target is unchanged. The data set is described as follows: Inhibition of LasR in Pseudomonas aeruginosa PA14 assessed as reduction in biofilm formation at 0.1 to 10 uM incubated at 37 degC for 24 hrs by crystal violet staining based static biofilm formation assay.
Data set [10] has the same target. The data set is described as follows: Inhibition of Pseudomonas aeruginosa LasR expressed in Pseudomonas aeruginosa PA14 over-expressing pUCPLasR assessed as reduction in biofilm formation at 0.1 to 100 uM incubated at 37 degC for 24 hrs by crystal violet staining based static biofilm formation assay.
Data set [11] has as its system Pseudomonas aeruginosa. The experiment in a line: Toxicity against Pseudomonas aeruginosa PA14 assessed as effect on bacterial growth at 1 to 10 uM incubated at 37 degC for 13 hrs.
The target of data set [12] is T1, Transcriptional activator protein LasR (Pseudomonas aeruginosa (strain ATCC 15692 / PAO1 / 1C / PRS 101 / LMG12228)). The data set is described as follows: Inhibition of LasR in Pseudomonas aeruginosa PA14 assessed as reduction in lasR gene expression at 10 uM by RT-qPCR method.
The target is the same in data set [13]. The data set is described as follows: Inhibition of LasR in Pseudomonas aeruginosa PA14 assessed as reduction in rhlA gene expression at 10 uM by RT-qPCR method.
Data set [14] has the same target. The experiment in a line: Inhibition of LasR in Pseudomonas aeruginosa PA14 assessed as reduction in pqsD gene expression at 10 uM by RT-qPCR method.
Data set [15] has the same target. The data set is described as follows: Inhibition of LasR in Pseudomonas aeruginosa PA14 assessed as reduction in phzE1 gene expression at 10 uM by RT-qPCR method.
Data set [16] shares this target. The experiment in a line: Inhibition of LasR in Pseudomonas aeruginosa PA14 assessed as reduction in pqsC gene expression at 10 uM by RT-qPCR method.
Data set [17] shares this target. The data set is described as follows: Inhibition of LasR in Pseudomonas aeruginosa PA14 assessed as reduction in pqsH gene expression at 10 uM by RT-qPCR method.
For data set [18], the system named is Pseudomonas aeruginosa. The data set is described as follows: Toxicity against Pseudomonas aeruginosa PA14 assessed as effect on house keeping proC gene expression at 10 uM by RT-qPCR method.
The target of data set [19] is T1, Transcriptional activator protein LasR (Pseudomonas aeruginosa (strain ATCC 15692 / PAO1 / 1C / PRS 101 / LMG12228)). The experiment in a line: Inhibition of LasR in Pseudomonas aeruginosa PA14 assessed as reduction in lasI gene expression at 10 uM by RT-qPCR method.
Data set [20] shares this target. The data set is described as follows: Inhibition of LasR in Pseudomonas aeruginosa PA14 assessed as reduction in lasA gene expression at 10 uM by RT-qPCR method.
Data set [21] shares this target. The experiment in a line: Inhibition of LasR in Pseudomonas aeruginosa PA14 assessed as reduction in rhlR gene expression at 10 uM by RT-qPCR method.

Results on 4 molecules are retold here after ChEMBL document CHEMBL3596092, “Design, synthesis and biological evaluation of 4-(alkyloxy)-6-methyl-2H-pyran-2-one derivatives as quorum sensing inhibitors” (Bioorg Med Chem Lett, 2015).

Structures are written as SMILES. Activity calls are given as the source filed them. No cut-off for these calls is given here.

Broadly, the inhibition is how much of the control response was suppressed. Consider `CCCCCCCCCCCCCCOc1cc(C)oc(=O)c1`, for which the inhibition in [1] was determined as 6%.

`O=C1C=C(Br)/C(=C/Br)O1`: in data set [1], the inhibition was determined as 13%.

As for `CCCCCCCCCCCCOc1cc(C)oc(=O)c1`, the inhibition entry in data set [2], in data set [3], in data set [4], in data set [5], in data set [6] and in data set [8] was “Active” throughout. Moreover, the inhibition entry in data set [10], in data set [12], in data set [13], in data set [14], in data set [15] and in [16] was “Active” throughout. For the same molecule, the inhibition entry in data set [17], in data set [19], in data set [20] and in data set [21] was “Active” each time. Moreover, the inhibition entry was “Dose-dependent effect” in data set [7], 6% in data set [9] and 11% in data set [1]. Further, the Activity result in the data set with Pseudomonas aeruginosa [11] and in the data set on Pseudomonas aeruginosa [18] was “Non-toxic” each time.

Consider `CCCCCCCCCCCCCOc1cc(C)oc(=O)c1`, for which the inhibition in [1] worked out at 6%.
